In PMC6006285, “Specific stereochemistry of OP-1074 disrupts estrogen receptor alpha helix 12 and confers pure antiestrogenic activity” (Nature Communications, 2018):
Several values for one entry are separate records, joined by “and”; a condition that tells them apart may be missing. Equal entries are not always repeated. Where two headings read alike, the source gives them in different places.

What was measured:
[1] = test system: AP activity in Ishikawa uterine cells; test: Alkaline phosphatase (AP) assay, agonist mode (absence of E2); format: cell-based, human
Description: (§1) Our primary screen to distinguish pure antiestrogens from SERMs was induction of alkaline phosphatase (AP) activity in Ishikawa uterine cells. […] The reference SERM used in our screen was endoxifen (N-desmethyl-4-hydroxytamoxifen), the most abundant bioactive metabolite of tamoxifen.
(§2) Shown is a representative figure analyzed and presented as above.
(§3) At least 4 h later cells were treated with antiestrogens and media was diluted to 2.5% stripped FBS. Cells were incubated for 3 days, media removed and plates frozen at −80 °C. Thawed plates were incubated with a chromogenic substrate of AP, p-nitrophenyl phosphate (ThermoFisher Scientific, #36721), for 40–60 min at 40 °C, and absorbance read at 405 nm on the Varioskan Lux multimodal plate reader (ThermoFisher Scientific, #VLBL00D0).

[2] = test system: E2-stimulated AP activity in Ishikawa cells; test: Alkaline phosphatase (AP) assay, antagonist mode (presence of 500 pM E2); format: cell-based, human
Description: as §1, §2, §3

ERα = biological target: T1, ERα (Homo sapiens, UniProt P03372); test: ERα protein levels by immunoblotting; format: cell-based; settings: MCF-7 cells, 100 nM ligand, 24 h, means of n experiments ±s.d.
T1 construct: endogenous in cells
T1 sequence (P03372 1-595): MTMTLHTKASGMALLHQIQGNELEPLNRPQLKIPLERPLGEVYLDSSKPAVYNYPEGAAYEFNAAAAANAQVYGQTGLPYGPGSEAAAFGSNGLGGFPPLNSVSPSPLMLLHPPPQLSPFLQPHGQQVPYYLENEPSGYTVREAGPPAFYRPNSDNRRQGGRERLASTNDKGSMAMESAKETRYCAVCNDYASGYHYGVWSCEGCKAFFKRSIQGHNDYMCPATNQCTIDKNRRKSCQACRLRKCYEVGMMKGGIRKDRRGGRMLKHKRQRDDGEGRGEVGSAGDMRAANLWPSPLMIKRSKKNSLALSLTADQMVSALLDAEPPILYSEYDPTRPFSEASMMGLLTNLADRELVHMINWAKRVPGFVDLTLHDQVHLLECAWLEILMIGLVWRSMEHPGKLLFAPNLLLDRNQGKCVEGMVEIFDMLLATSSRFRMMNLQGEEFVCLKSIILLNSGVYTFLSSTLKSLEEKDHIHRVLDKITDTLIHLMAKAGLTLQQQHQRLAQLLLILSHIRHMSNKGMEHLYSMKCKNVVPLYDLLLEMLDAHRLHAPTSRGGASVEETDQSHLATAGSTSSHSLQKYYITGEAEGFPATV
Description: However, it is conceivable that under some clinical contexts SERD activity may still be a desirable feature by reducing the number of functional receptors in tumors.
Imaging was performed on FluorChem Imager by Alpha Innotech. […] An uncropped image of the immunoblot is shown in Supplementary Fig. 5.

MCF-7 cells = test: Inhibition of E2-stimulated proliferation of MCF-7 cells; format: cell-based; settings: Homo sapiens
CAMA-1 cells = test: Inhibition of E2-stimulated proliferation of CAMA-1 cells; format: cell-based; settings: Homo sapiens, CAMA-1, 192 h; read-out: CAMA-1 IC50 proliferation (Fig. 3c)
Description: Shown is a representative figure analyzed and presented as above. d, Western blot of destabilization of ERα protein by OP-1074.
Proliferation was measured using CyQuant fluorescent DNA-binding dye kit (ThermoFisher Scientific, #C7026) using 1:200 GR dye and reading fluorescence at 485 nm excitation and 538 nm emission on the Varioskan Lux multimodal plate reader.

[3] = biological target: T2, Estrogen Receptor α LBD (ERα) (Homo sapiens, UniProt P03372); test: Competitive ligand binding assay with [3H]-E2; settings: 10 nM [3H]-E2 tracer, 2 nM biotinylated ERα LBD; representative experiment
T2 construct: 2 nM biotinylated Estrogen Receptor α LBD (ERα) was incubated; biotin (biotinylated)
T2 sequence (P03372 311-547 limits assumed): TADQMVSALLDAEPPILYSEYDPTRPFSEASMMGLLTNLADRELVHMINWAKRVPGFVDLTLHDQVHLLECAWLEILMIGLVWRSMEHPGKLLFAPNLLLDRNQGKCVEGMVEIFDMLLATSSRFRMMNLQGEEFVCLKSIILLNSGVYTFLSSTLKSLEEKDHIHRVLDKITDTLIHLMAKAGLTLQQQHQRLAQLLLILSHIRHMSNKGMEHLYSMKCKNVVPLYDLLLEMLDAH
Description: Experimental data points are mean + /− s.e.m. of triplicate samples in a representative experiment. […] Experimental data points are mean + /− s.d. of triplicate samples in a representative experiment
Triplicate reactions were vortexed and 100 μL was added in triplicate to a 96-well streptavidin flashplate (Perkin Elmer #SMP103001PK), which incubated overnight at 4 °C prior to reading.

[4] = test system: uterus of ovariectomized BALB/c mice; test: Uterine wet weight (uterotrophic assay) in ovariectomized BALB/c mice; format: in vivo, mouse; settings: 100 mg/kg oral gavage daily for 3 days
Text: as §2
To confirm that OP-1074 lacks agonist activity in the uterus, we tested it in ovariectomized BALB/c mice in a uterotrophic assay. […] Thus, OP-1074 is a pure antiestrogen in the mouse uterus.
Animals were euthanized and uteri dissected and weighed.

[5] = Pharmacokinetics in mouse plasma at conclusion of xenograft study; format: in vivo
[6] = female, athymic nude, mouse plasma, final dose, 100 mg/kg oral gavage twice daily

Question: Which results are given for CC1=C(c2ccc(O)cc2)[C@H](c2ccc(OCCN3CC[C@@H](C)C3)cc2)Oc2cc(O)ccc21 [OP-1074]?
Answer: Maximal AP activity in agonist mode relative to E2 control ([1]; 3 days, absence of E2, normalized to 500 pM E2, representative experiment (Fig. 2a)): 8%; Induction of AP activity (% E2) ([1]; Maximum AP activity observed relative to positive control, 500 pM E2, means of n independent experiments ±s.d.): 10% ± 4.4 (n = 29) % E2; IC50 ([2]; Homo sapiens, Ishikawa, 72 h, read-out: IC50 inhibition of E2-stimulated AP activity): 20 nM; Antagonism of E2-stimulated AP activity ([2]; Ishikawa cells, 500 pM E2): completely antagonized E2; Relative ERα protein levels (% vehicle) (ERα): 49 % vehicle and 49% ± 13 (n = 15) % vehicle; IC50 (MCF-7 cells; MCF7, 168 h, read-out: MCF-7 IC50 proliferation (Fig. 3b)): 9.2 nM; IC50 (MCF-7 cells; MCF7, read-out: IC50 proliferation): 7.2 ± 0.9 nM; IC50 (CAMA-1 cells): 5.7 nM; IC50 [3]: 7 nM and 7.03 nM; Uterine wet weight, agonist mode ([4]; absence of E2, OP-1074 as mixture of active and inactive diastereomers): did not increase uterine wet weight; Uterine wet weight, antagonist mode ([4]; co-treated with E2 subcutaneously): not significantly different from fulvestrant; Cmax ([5]; female, athymic nude, oral, 100 mg/kg, mouse plasma, final dose, over a 24-h period, read-out: Cmax (Fig. 7c)): 1280 ng/mL; AUC [5, 6]: 8200 ng·h/mL; Tmax [5, 6]: 1.5 h; half-life [5, 6]: 3.01 h; Cmax ([5]; female, athymic nude, mouse plasma, final dose, 100 mg/kg oral gavage twice daily, read-out: Cmax): 1300 ng/mL; Oral bioavailability ([5]; mouse, 100 mg/kg oral gavage twice daily): good oral bioavailability
